According to ChEMBL document CHEMBL4622974, “Leveraging an Open Science Drug Discovery Model to Develop CNS-Penetrant ALK2 Inhibitors for the Treatment of Diffuse Intrinsic Pontine Glioma” (J Med Chem, 2020):

What was measured:
Activin receptor type-1 [1] = molecular target: T1, Activin receptor type-1 (Homo sapiens, UniProt Q04771); test: Inhibition of human ALK2 using casein as substrate in presence of [gamma-33P]-ATP by radiometric hotspot assay
T1 sequence (Q04771 whole entry): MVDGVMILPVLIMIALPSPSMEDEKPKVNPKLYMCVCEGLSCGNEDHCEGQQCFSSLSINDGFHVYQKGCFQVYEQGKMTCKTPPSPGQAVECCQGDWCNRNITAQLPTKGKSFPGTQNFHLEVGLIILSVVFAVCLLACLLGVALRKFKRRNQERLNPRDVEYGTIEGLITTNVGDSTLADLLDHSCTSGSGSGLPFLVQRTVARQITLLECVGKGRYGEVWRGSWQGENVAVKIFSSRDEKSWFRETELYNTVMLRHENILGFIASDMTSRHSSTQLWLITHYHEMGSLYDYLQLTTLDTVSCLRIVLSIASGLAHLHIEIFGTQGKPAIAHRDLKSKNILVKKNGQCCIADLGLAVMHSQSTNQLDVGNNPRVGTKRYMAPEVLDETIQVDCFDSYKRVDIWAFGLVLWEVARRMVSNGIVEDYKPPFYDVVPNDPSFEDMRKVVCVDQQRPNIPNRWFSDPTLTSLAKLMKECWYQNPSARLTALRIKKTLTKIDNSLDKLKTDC

Activin receptor type-1B = molecular target: T2, Activin receptor type-1B (Homo sapiens, UniProt P36896); test: Inhibition of human ALK4 using casein as substrate in presence of [gamma-33P]-ATP by radiometric hotspot assay; format: ADME
T2 sequence (P36896 whole entry): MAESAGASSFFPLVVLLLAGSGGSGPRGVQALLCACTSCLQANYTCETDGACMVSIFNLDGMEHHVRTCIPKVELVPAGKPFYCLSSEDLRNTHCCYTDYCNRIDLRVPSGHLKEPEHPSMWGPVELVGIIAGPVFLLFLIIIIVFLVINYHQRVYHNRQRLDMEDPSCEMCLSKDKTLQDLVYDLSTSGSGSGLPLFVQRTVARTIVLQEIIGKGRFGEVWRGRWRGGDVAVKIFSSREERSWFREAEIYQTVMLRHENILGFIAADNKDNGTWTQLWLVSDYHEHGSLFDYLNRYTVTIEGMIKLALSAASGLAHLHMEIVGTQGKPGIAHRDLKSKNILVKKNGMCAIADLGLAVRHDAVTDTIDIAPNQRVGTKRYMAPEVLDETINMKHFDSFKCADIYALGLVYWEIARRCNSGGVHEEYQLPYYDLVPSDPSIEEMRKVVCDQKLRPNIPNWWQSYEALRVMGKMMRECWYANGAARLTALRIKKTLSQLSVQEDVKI

TGF-beta receptor type-1 [2] = molecular target: T3, TGF-beta receptor type-1 (Homo sapiens, UniProt P36897); test: Inhibition of human ALK5 using casein as substrate in presence of [gamma-33P]-ATP by radiometric hotspot assay; format: ADME
T3 sequence (P36897 whole entry): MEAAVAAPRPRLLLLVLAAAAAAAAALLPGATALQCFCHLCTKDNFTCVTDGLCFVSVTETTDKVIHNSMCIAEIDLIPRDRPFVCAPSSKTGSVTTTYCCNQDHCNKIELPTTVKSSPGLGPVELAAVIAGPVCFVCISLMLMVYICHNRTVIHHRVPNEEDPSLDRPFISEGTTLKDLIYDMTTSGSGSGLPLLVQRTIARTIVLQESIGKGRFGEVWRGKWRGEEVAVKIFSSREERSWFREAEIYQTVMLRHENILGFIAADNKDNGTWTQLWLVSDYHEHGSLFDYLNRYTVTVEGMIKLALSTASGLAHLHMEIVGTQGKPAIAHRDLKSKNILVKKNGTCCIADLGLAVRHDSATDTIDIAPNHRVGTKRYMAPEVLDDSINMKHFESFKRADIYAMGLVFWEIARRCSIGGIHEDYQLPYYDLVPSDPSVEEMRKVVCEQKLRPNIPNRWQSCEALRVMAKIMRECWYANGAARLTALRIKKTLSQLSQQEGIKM

Activin receptor type-1 [3] = molecular target: T1, Activin receptor type-1; test: Competitive displacement of PBI-6908 from nanoluciferase-fused ALK2 (unknown origin) expressed in HEK293 cells incubated for 2 hrs by NanoBRET NanoGlo substrate based NanoBRET assay; format: cell-based
TGF-beta receptor type-1 [4] = molecular target: T3, TGF-beta receptor type-1; test: Inhibition of recombinant human ALK5 expressed in HEK293 cells transfected with CAGA-luciferase and Renilla luciferase reporter after 24 hrs by dual luciferase reporter assay; format: cell-based
[5] = molecular target: Voltage-gated inwardly rectifying potassium channel KCNH2 (Homo sapiens, UniProt Q12809); test: Inhibition of human ERG expressed in HEK293 cells after 5 mins by IonWorks barracuda patch clamp method; format: cell-based
Voltage-gated inwardly rectifying potassium channel KCNH2, sequence (Q12809 whole entry): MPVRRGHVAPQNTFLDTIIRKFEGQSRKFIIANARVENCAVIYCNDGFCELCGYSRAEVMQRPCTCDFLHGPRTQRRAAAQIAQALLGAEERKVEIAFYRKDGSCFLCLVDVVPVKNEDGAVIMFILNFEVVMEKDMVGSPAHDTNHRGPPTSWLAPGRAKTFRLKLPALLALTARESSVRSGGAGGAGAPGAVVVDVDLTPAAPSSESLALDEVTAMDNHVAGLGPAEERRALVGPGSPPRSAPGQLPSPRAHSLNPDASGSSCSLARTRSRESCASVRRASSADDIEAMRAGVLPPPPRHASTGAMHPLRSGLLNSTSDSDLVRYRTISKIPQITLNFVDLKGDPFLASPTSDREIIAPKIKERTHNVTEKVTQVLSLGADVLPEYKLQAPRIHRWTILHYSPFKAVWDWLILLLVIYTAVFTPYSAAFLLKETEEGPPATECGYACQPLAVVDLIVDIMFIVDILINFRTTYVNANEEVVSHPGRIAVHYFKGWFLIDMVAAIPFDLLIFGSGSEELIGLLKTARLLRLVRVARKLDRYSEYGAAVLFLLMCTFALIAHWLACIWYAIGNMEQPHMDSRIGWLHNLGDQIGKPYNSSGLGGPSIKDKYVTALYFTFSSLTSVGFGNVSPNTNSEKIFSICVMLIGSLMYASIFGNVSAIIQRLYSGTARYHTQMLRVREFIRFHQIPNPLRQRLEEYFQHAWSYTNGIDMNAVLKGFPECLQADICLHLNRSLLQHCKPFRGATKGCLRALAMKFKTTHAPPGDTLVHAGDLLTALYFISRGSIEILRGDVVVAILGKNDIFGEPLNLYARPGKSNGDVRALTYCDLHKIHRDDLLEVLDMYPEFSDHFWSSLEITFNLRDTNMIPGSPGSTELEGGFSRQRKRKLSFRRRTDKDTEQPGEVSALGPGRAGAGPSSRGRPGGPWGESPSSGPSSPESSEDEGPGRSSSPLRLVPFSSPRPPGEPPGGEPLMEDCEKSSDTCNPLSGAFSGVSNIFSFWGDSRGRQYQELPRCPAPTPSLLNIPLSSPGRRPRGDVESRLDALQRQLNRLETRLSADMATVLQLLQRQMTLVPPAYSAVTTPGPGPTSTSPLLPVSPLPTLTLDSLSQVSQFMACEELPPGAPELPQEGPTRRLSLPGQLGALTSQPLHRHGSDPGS

[6] = Stability in CD1 mouse liver microsomes assessed as compound remaining at 1 uM incubated for 60 mins by LC/MS analysis; format: ADME, Microsome; settings: read-out: Stability
[7] = Stability in human liver microsomes assessed as compound remaining at 1 uM incubated for 60 mins by LC/MS analysis; format: ADME, Microsome; settings: read-out: Stability
[8] = Apparent permeability across apical to basolateral side in human Caco2 cells at 5 uM after 120 mins by LC-MS/MS analysis; settings: Caco-2
[9] = Apparent permeability across basolateral to apical side in human Caco2 cells at 5 uM after 120 mins by LC-MS/MS analysis; format: ADME, cell-based; settings: Caco-2
[10] = Efflux ratio of apparent permeability across basolateral to apical over apical to basolateral side in human Caco2 cells at 5 uM incubated for 2 hrs by LC/MS/MS analysis; settings: Caco-2
[11] = Half life in CD1 mouse liver microsomes at 1 uM incubated for 60 mins by LC/MS analysis; format: ADME, Microsome
[12] = Half life in human liver microsomes at 1 uM incubated for 60 mins by LC/MS analysis; format: ADME, Microsome
[13] = Clearance in CB17 SCID mouse at 2 mg/kg, iv after 0.25 to 24 hrs by LC/MS/MS method; format: ADME, organism-based; settings: in vivo
[14] = Volume of distribution at steady state in CB17 SCID mouse at 2 mg/kg, iv after 0.25 to 24 hrs by LC/MS/MS method; format: ADME, organism-based; settings: in vivo, read-out: Vdss
[15] = Half life in CB17 SCID mouse at 10 mg/kg, po after 0.25 to 24 hrs by LC/MS/MS method; format: ADME, organism-based; settings: in vivo
[16] = Cmax in CB17 SCID mouse at 10 mg/kg, po after 0.25 to 24 hrs by LC/MS/MS method; format: ADME, organism-based; parameters: dose 10 mg/kg, route oral; settings: in vivo
[17] = AUCinfinity in CB17 SCID mouse at 10 mg/kg, po after 0.25 to 24 hrs by LC/MS/MS method; format: ADME, organism-based; parameters: dose 10 mg/kg, time infinity, route oral; settings: in vivo
[18] = Oral bioavailability in CB17 SCID mouse at 10 mg/kg after 0.25 to 24 hrs by LC/MS/MS method; format: ADME, organism-based; settings: in vivo
[19] = Ratio of drug level in brain to plasma in CB17 SCID mouse at 10 mg/kg, po measured at 4 h; format: ADME, organism-based; settings: brain and plasma, read-out: BPR
[20] = Toxicity in CB17 SCID mouse assessed as induction of adverse effect at 2 mg/kg, iv; format: organism-based; settings: in vivo
[21] = Toxicity in CB17 SCID mouse assessed as induction of adverse effect at 10 mg/kg, po; format: organism-based; settings: in vivo
[22] = Selectivity ratio of IC50 for human ALK4 to IC50 for human ALK2; format: ADME
[23] = Plasma concentration in NOD/SCID mouse at 25 mg/kg, po measured after 0.5 to 6 hrs; format: ADME, organism-based; settings: in vivo
[24] = Oral bioavailability in BALB/c mouse at 5 mg/kg by LC-MS/MS analysis; format: ADME, organism-based; settings: in vivo
[25] = Half life in BALB/c mouse at 5 mg/kg, po by LC-MS/MS analysis; format: ADME, organism-based; settings: in vivo
[26] = Drug level in NOD/SCID mouse brain at 25 mg/kg, po measured at 2 hr post dose on day 14 by LC-MS/MS analysis; format: ADME, organism-based; settings: read-out: Drug uptake
[27] = Ratio of drug level in brain to plasma in NOD/SCID mouse at 25 mg/kg, po measured at 2 hr post dose on day 14 by LC-MS/MS analysis; format: ADME, organism-based; settings: read-out: BPR
[28] = Drug uptake in NOD/SCID mouse at 25 mg/kg, po measured after 0.5 to 6 hrs; format: ADME, organism-based; settings: in vivo

Row | Structure (SMILES) | IC50 (Activin receptor type-1 [1]) [nM] | IC50 (Activin receptor type-1B) [nM] | IC50 (TGF-beta receptor type-1 [2]) [nM] | IC50 (Activin receptor type-1 [3]) [nM] | IC50 (TGF-beta receptor type-1 [4]) [nM] | IC50 [5] [nM] | Ratio IC50 [22] | further results
1 | COc1cc(-c2cncc(-c3ccc(C4=CCNCC4)cc3)c2C)cc(OC)c1OC | 5 | > 2000 | > 5000 | 47 | 7530 | 3400 | – | remaining at 1 h, 1 µM [6]: 73.9%; remaining at 1 h, 1 µM [7]: 68%; Papp A→B at 2 h, 5 µM [8]: 2.9 ×10⁻⁶ cm/s; Papp B→A at 2 h, 5 µM [9]: 3.9 ×10⁻⁶ cm/s; efflux ratio at 2 h, 5 µM [10]: 1.3; half-life at 1 µM [11]: > 1 h; half-life at 1 µM [12]: > 1 h; clearance [13]: 3.84 mL/min/kg; Vd [14]: 1.66 L/kg; half-life [15]: 6.02 h; Cmax [16]: 6.62 µM; AUC(0-inf) [17]: 82.5 µM·h; bioavailability [18]: 79%; Kp at 4 h [19]: 0.43; Activity [20]: Non-Toxic; Activity [21]: Non-Toxic
2 | COc1cc(-c2cncc(-c3ccc(N4CCN(C(C)C)CC4)cc3)c2C)cc(OC)c1OC | 7 | – | 2240 | 73 | 1820 | 3100 | – | –
3 | COc1cc(-c2cncc(-c3ccc(N4CCNCC4)cc3)c2C#N)cc(OC)c1OC | 3 | 257 | 731 | 15 | 679 | 6000 | 86 | –
4 | COc1cc(-c2cncc(-c3ccc(N4CCNCC4)cc3)c2C)cc(OC)c1OC | – | – | – | – | – | – | – | concentration [23]: 9.11 µM
5 | COc1cc(-c2cncc(-c3ccc(N4CCNCC4)cc3)c2F)cc(OC)c1OC | 15 | 630 | 880 | 32 | 2180 | – | 42 | –
6 | COc1cc(-c2cncc(-c3ccc(N4CCNCC4)cc3)c2Cl)cc(OC)c1OC | 16 | 962 | 1330 | 57 | 9450 | 2700 | 60 | –
7 | COc1cc(-c2cc(-c3ccc(N4CCNCC4)cc3)cnc2C)cc(OC)c1OC | – | – | – | – | – | – | – | bioavailability [24]: 75%; half-life [25]: 3.91 h; concentration at 2 h [26]: 10.9 µM; Kp at 2 h [27]: 0.8
8 | COc1cc(-c2cncc(-c3ccc(OC4CCNCC4)cc3)c2C)cc(OC)c1OC | 6 | 1360 | 2850 | 31 | 1910 | 8100 | 227 | remaining at 1 h, 1 µM [6]: 39.3%; remaining at 1 h, 1 µM [7]: 62.1%; Papp A→B at 2 h, 5 µM [8]: 4.1 ×10⁻⁶ cm/s; Papp B→A at 2 h, 5 µM [9]: 9.4 ×10⁻⁶ cm/s; efflux ratio at 2 h, 5 µM [10]: 2.3; half-life at 1 µM [11]: > 1 h; half-life at 1 µM [12]: > 1 h; clearance [13]: 6 mL/min/kg; Vd [14]: 2.23 L/kg; half-life [15]: 7.7 h; Cmax [16]: 4.71 µM; AUC(0-inf) [17]: 65.8 µM·h; bioavailability [18]: 96%; Activity [20]: Non-Toxic; Activity [21]: Non-Toxic
9 | COc1cc(-c2cncc(-c3ccc(N4C[C@@H](C)N[C@@H](C)C4)cc3)c2C)cc(OC)c1OC | 8 | – | 1050 | 40 | 1430 | 5900 | – | –
10 | COc1cc(-c2cncc(-c3ccc(N4CCN(S(C)(=O)=O)CC4)cc3)c2C)cc(OC)c1OC | 29 | 1130 | 1980 | 59 | 6390 | > 50000 | 39 | remaining at 1 h, 1 µM [6]: 100%; remaining at 1 h, 1 µM [7]: 83.6%; Papp A→B at 2 h, 5 µM [8]: 34.5 ×10⁻⁶ cm/s; Papp B→A at 2 h, 5 µM [9]: 33.8 ×10⁻⁶ cm/s; efflux ratio at 2 h, 5 µM [10]: 1; half-life at 1 µM [11]: > 1 h; half-life at 1 µM [12]: > 1 h; clearance [13]: 7.9 mL/min/kg; Vd [14]: 0.48 L/kg; half-life [15]: 0.8 h; Cmax [16]: 1.43 µM; AUC(0-inf) [17]: 2.97 µM·h; bioavailability [18]: 7%; Activity [20]: Non-Toxic; Activity [21]: Non-Toxic
11 | COc1cc(-c2cncc(-c3ccc(N4CCNCC4)cc3)c2C)cc(OC)c1OC.CS(=O)(=O)O | – | – | – | – | – | – | – | Drug uptake [28]: Active
12 | COc1cc(-c2cncc(-c3ccc(N4CCNCC4)cc3)c2)cc(OC)c1OC | – | 462 | – | – | – | – | 36 | –
13 | COc1cc(-c2cncc(-c3ccc(N4CCN(C(=O)N(C)C)CC4)cc3)c2C)cc(OC)c1OC | 4 | – | > 5000 | 149 | > 5000 | – | – | –
